The structures appear in SMILES notation.

Usually IC50 stands for the concentration that gives 50% inhibition. A higher IC50 goes with lower potency.

Assay [1] deals with Diacylglycerol kinase zeta (Homo sapiens, UniProt Q13574). Briefly: In Vitro DGK Inhibition Assay. On the procedure: (§1) The DGKα and DGKζ reactions were performed using either extruded liposome (DGKα and DGKζ LIPGLO assays). […] Luminescence was recorded using an EnVision microplate reader.
Assay [2] has as its target Diacylglycerol kinase alpha (Homo sapiens, UniProt P23743). Briefly: In Vitro DGK Inhibition Assay. How it is done:
as §1

Chain of Diacylglycerol kinase zeta (Q13574 as listed by the source): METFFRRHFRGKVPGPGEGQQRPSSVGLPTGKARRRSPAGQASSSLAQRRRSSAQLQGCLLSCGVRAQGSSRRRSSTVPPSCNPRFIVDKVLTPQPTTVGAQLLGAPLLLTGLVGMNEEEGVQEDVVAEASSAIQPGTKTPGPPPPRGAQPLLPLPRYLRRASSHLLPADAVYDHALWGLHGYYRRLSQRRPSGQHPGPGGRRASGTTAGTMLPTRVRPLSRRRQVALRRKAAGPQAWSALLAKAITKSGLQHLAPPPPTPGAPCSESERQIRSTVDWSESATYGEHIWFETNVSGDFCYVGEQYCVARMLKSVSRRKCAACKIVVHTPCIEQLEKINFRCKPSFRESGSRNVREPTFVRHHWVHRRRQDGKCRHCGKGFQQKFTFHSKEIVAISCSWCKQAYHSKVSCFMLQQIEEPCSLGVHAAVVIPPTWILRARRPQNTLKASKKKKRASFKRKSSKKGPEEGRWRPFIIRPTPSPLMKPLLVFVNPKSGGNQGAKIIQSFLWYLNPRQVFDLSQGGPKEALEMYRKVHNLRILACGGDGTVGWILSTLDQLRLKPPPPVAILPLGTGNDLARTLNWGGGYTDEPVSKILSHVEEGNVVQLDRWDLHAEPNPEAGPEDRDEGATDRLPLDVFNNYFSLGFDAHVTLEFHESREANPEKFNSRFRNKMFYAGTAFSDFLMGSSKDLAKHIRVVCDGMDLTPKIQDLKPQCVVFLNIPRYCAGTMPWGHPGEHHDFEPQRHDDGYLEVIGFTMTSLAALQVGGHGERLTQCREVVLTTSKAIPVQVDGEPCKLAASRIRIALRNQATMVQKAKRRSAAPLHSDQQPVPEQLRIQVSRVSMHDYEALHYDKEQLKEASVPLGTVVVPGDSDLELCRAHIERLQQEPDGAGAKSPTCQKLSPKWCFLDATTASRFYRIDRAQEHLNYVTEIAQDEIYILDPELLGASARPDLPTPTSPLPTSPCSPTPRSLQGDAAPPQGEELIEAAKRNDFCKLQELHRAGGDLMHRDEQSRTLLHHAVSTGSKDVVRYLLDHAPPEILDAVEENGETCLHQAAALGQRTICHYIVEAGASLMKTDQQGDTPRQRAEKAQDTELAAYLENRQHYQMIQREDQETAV
Chain of Diacylglycerol kinase alpha (P23743 whole entry): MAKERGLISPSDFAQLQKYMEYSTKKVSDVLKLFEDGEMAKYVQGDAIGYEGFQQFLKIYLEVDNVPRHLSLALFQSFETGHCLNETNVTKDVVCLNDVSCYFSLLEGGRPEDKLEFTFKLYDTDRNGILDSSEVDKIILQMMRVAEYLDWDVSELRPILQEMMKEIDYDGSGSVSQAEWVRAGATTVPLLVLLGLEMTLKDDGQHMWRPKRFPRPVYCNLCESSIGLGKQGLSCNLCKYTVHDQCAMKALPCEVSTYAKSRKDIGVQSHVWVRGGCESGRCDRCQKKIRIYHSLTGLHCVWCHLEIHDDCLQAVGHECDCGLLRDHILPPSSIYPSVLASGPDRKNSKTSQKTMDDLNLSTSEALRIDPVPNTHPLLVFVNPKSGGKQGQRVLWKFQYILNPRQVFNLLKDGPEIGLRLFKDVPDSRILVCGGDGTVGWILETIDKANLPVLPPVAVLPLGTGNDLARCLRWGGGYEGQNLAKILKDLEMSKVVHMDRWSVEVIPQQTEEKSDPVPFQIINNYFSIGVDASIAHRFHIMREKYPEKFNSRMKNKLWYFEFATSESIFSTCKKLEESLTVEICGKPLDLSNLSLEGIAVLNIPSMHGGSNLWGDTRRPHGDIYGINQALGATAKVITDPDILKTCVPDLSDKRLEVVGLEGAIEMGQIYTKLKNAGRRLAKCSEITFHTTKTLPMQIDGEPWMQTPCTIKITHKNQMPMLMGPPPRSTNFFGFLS

Regarding `CCO[C@H]1CN(c2cc(=O)n(C)c3ccc(C#N)nc23)CC[C@@H]1Oc1ccc(OC(C)C)cn1` (relative stereo) [US11964973, Example 397], in assay [1], the IC50 came out at 420 nM.

As to `Cn1c(=O)cc(N2CCC(Oc3ccc(C(C)(C)C)cc3)CC2)c2cc(C#N)ccc21` [US11964973, Example 53], the IC50 is 770 nM in assay [2] and 2000 nM in assay [1].

(Values after BindingDB's records for patent US11964973 (Bristol-Myers Squibb, 2024).)
